Experimental data published in US9861116B2, “Pet food compositions for inducing a satiety response” (Hill's Pet Nutrition, Inc., priority 2010, dated 2018).

Assays:
LEPR = experiment: Affymetrix feline GeneChip gene expression analysis, LEPR; type: cell-based; conditions: in all cell lines tested (CCL-150, CCL-176, CRL-2032, CCL-94); amount tested 0.005 mg/mL, 0.05 mg/mL; treatment intensity/control intensity
Method: (§1) Gene expression was analyzed using proprietary feline GeneChip® Arrays prepared by Affymetrix, Inc., Santa Clara, Calif. 95051. Total RNA is reverse transcribed into cDNA. The cDNA is used to generate cRNA which is fragmented and used as probes for GeneChip hybridization. The gene chip is washed and the hybridization signal is measured with an Affymetrix laser scanner. The hybridization data is then validated and normalized for further analysis.
(§2) Materials: Affymetrix provided most of the reagents and kit. Other reagents listed in the Affymetrix Manual but not supplied in the kit were obtained separately. Refer to GeneChip Expression Analysis Technical Manual (701021 Rev.4) for the details.
(§3) Equipment. […]
(§4) Affymetrix gene chips are used to determine the effect of various test substances or ingredients on gene expression in four feline cell lines and appropriate controls. […] Gene expression was measured for the treatment cell lines and controls. The gene expression data was determined to be either “up” or “down”-regulated for any given treatment. The decision on whether a gene is “up” or “down” is based on the fold change, which is calculated as treatment intensity/control intensity for each individual probe.

NPY = experiment: Affymetrix feline GeneChip gene expression analysis, NPY; type: cell-based; conditions: in two cell lines tested, amount tested 0.003 mg/mL, 0.03 mg/mL, treatment intensity/control intensity
Method: as §1, §2, §3, §4

Row | SMILES | Fold Change (gene expression, LEPR) (LEPR) | Fold Change (gene expression, NPY) (NPY)
1 | Oc1ccc(C=Cc2cc(O)cc(O)c2)cc1 [Resveratrol] | 1.96 (in all cell lines | 
2 | CC1=C(/C=C/C(C)=C/C=C/C(C)=C/C=C/C=C(C)/C=C/C=C(C)/C=C/C2=C(C)CCCC2(C)C)C(C)(C)CCC1 [Beta-Carotene] |  | −1.75 (in two cell
